Key:
[1] = tested on: male Sprague Dawley rats treated with indomethacin; experiment: Indomethacin-induced small intestinal ulcers (model of Crohn's disease), extent of ulceration; format: in vivo; conditions: prednisolone 10 mg/kg vs indomethacin alone
Procedure: FIG. 13 is a graph illustrating the effect of compound 1848 (SEQ ID NO:36) on small intestinal ulcers induced by indomethacin. Male Sprague Dawley rats were treated with vehicle (saline; group 1) or indomethacin (7 mg/kg s.c., once daily for two days; groups 2-7). Indomethacin was given alone (group 2) or in combination with prednisolone (10 mg/kg s.c.; group 3) or with 8, 40, or 200 nmol/kg compound 1848 (SEQ ID NO:36) s.c. […] (groups 4-6). Finally, one group of rats was treated with combination treatment of prednisolone (10 mg/kg s.c.) and compound 1848 (SEQ ID NO:36), 200 nmol/kg s.c. once daily (group 7). Treatment with compound 1848 (SEQ ID NO:36) was initiated 4 days prior to indomethacin and continued during the two days of indomethacin treatment. On day 3, rats were sacrificed and upon necropsy, the small intestine was gently flushed with 10% formalin and filled with formalin for a period of 5 minutes, after which the intestine was cut open along the antimesenteric margin and suspended on a polypropylene plate. Any remaining intestinal contents were carefully removed with a pair of tweezers. After fixation for another 24 hours at room temperature, the tissue was rinsed in Milli-Q water and surface-stained for 20 minutes with Alcian Green 3BX (Chroma) prepared as a 0.5% solution in 1% acetic acid (Bie & Berntsen). After removal of excess staining solution with Milli-Q water the tissue preparation was transferred to 70% alcohol and analyzed using a stereomicroscope at low magnification (×7). Starting at the pylorus, the small intestine was scanned and the shape (circular vs. linear) and size (circular ulcers: diameter, linear ulcers: length×width) of all ulcers was measured using a standard ruler (resolution: 0.5 mm). An ulcer was defined as an area, which lacked epithelial surface. In healing ulcers only the area that still lacked epithelial surface was regarded an ulcer even if the villus structure was still missing in a larger area. All analysis was performed in a blinded manner. […] Treatment with prednisolone caused a significant reduction in the extent of ulceration by app. 29%. […] Values are means±SEM. * P<0.05 vs. indomethacin (group 2). ^#P<0.05 vs. prednisolone (group 3).
Crohn's disease is a chronic disease that causes episodic inflammation of the small intestine. The effect of the GLP-2 analogue 1848 (SEQ ID NO:36) on small intestinal inflammation in an indomethacin-induced model of Crohn's disease was investigated. We have previously shown that administration of indomethacin (s.c, once daily for 2 days) induces small intestinal inflammation characterized by ulcerations and, increases in the pro-inflammatory cytokine, tumour necrosis factor alpha (TNF-α).
To determine the effect of ZP1848 (SEQ ID NO:36) on ulceration 1848 (SEQ ID NO:36) (8, 40 and 200 nmol/kg, s.c, twice daily (9:00 and 16:00)) was given for 4 days prior to the first dose of indomethacin and for an additional two days together with indomethacin. The corticosteroid, prednisolone (10 mg/kg, p.o) was used as a positive control since corticosteroids are commonly used in the treatment of active inflammation in Crohn's disease. In addition a group of animals were given both 1848 (SEQ ID NO:36) (200 nmol/kg) and prednisolone to determine the effects of a combination treatment. Twenty four hours after the last dose of 1848 (SEQ ID NO:36) had been given the animals were sacrificed the small intestine was gently flushed clean and fixed. To determine the extent of ulceration the intestine was cut open along the antimesenteric margin, suspended on a polypropylene plate and surface-stained with Alcian Green 3BX. Starting at the pylorus, the small intestine was scanned and the shape (circular vs. linear) and size (circular ulcers: diameter, linear ulcers: length×width) of all ulcers was measured using a standard ruler (resolution: 0.5 mm). An ulcer was defined as an area, which lacked epithelial surface. […]

TNF-α = experiment: Small intestinal tissue content of TNF-α (ELISA) in rats with indomethacin-induced inflammation; format: in vivo; conditions: prednisolone 10 mg/kg alone
Procedure: Male Sprague Dawley rats were treated with vehicle (saline; group 1) or indomethacin (7 mg/kg s.c., once daily for two days; groups 2-7). […] On day 3, rats were sacrificed and upon necropsy, the small intestine was divided into three segments of equal length corresponding to 1) duodenum and proximal jejunum, 2) mid and distal jejunum and 3) ileum. Samples were immediately snap-frozen in liquid N2 and stored at −80° C. until analysis. Homogenization and extraction of cellular protein from small intestinal segments was performed according to the following procedure: Tissue segments were weighed and added a volume of 1.5 ml per gram tissue ice-cold (4° C.) extraction buffer (10 mM Tris-HCl (Sigma) and 1 mM EDTA (J. T. Baker), (pH 7.6) with 0.05% sodium azide (Fluka), 1% Tween-80 (Fluka), 2 mM phenylmethylsulfonyl fluoride (PMSF, Fluka) and 1 μg/ml of each of the protease inhibitors aprotinin, leupeptin and pepstatin A (Roche Diagnostics)). The tissue was cut into small bits with a pair of scissors and homogenized three times for 20 seconds (IKA UltraTurrax T25 homogenizer, Janke & Kunkel) at 9500 rpm with intermittent cooling on ice for 30 seconds. The homogenate was centrifuged at 20.000×g for 30 minutes at 4° C., the supernatant was collected and stored at −20° C. until analysis for TNF-α small intestinal protein extractions were analyzed for TNF-α using a commercially available ELISA kit according to the manufacturer's instructions (Rat Tumor Necrosis Factor-α UltraSensitive ELISA kit, Biosource International Inc.). The assay has a detection limit of 0.7 pg/ml. Protein extractions were analyzed for total protein content using a commercially available assay (DC protein assay, Bio-Rad Laboratories Ltd.). Small intestinal tissue levels of TNF-α were expressed relative to total protein. […] Values are means±SEM. * P<0.05 vs. indomethacin (group 2).
At sacrifice, however the small intestine was separated into three segments of equal length (proximal, mid and distal). TNF-α concentrations were measured in each of the individual segments using a commercially available ELISA kit.

[2] = in vivo; cited from earlier work
[3] = tested on: colonic neoplasms in mice; conditions: cited from earlier work

Compound | Reduction in the extent of ulceration [1] [%] | Tissue levels of TNF-α, all 3 segments (TNF-α) | half life [2] | Growth of colonic neoplasms [3]
C[C@]12C=CC(=O)C=C1CC[C@@H]1[C@@H]2[C@@H](O)C[C@@]2(C)[C@H]1CC[C@]2(O)C(=O)CO [prednisolone, reference compound] | ~29 | did not significantly affect tissue levels of TNF-α | – | –
H-His-Ala-Asp-Gly-Ser-Phe-Ser-Asp-Glu-Met-Asn-Thr-Ile-Leu-Asp-Asn-Leu-Ala-Ala-Arg-Asp-Phe-Ile-Asn-Trp-Leu-Ile-Gln-Thr-Lys-Ile-Thr-Asp-OH [GLP-2] | – | – | about 7 minutes | accelerate the growth of colonic neoplasms in mice

From US9580487B2, “Method of treating stomach or bowel-related disorders by administering glucagon-like-peptide-2 (GLP-2) analogues” (Zealand Pharma A/S, priority 2005, dated 2017)
